From publication PMC9916441, “Resveratrol Derivative Exhibits Marked Antiproliferative Actions, Affecting Stemness in Pancreatic Cancer Cells” (International Journal of Molecular Sciences, 2023)
Like-named read-outs stand apart in the source and are kept apart here.

Columns and labels:
Capan-2 [1] = test: Flow cytometry immunophenotyping of CD133+EpCAM+ cancer stem-like subpopulation; assay type: cell-based, human; conditions: Capan-2, 20 μM, 72 h
Protocol: (§1) The expression of CD133 and EpCAM surface antigens was evaluated using flow cytometry. Briefly, the PC cells were seeded in 6-well plates and treated for 72 h with 20 μM DF5, RSV, or with vehicle (DMSO). After treatment, the cells were collected in PBS and stained at room temperature in the dark for 30 min with PE-CD133, FITC-EpCAM antibodies, and Reactive Dye. After labeling, the samples were washed in PBS by centrifugation at 1500 rpm for 10 min, to remove excess antibodies. Flow cytometer performance, stability, and data reproducibility were daily checked by using the CS&T quality control Module (BD Biosciences). The gating strategy and the evaluation of non-specific fluorescence was determined using fluorescence minus one (FMO) controls. The data were acquired with FACSVerse analyzer equipped with a volumetric count module (BD Biosciences, San Jose, CA, USA) and are expressed as the percentage of positive cells.

BxPC-3 [2] = test: as above; assay type: cell-based, human; conditions: BxPC-3, 20 μM, 72 h
Protocol: as §1

AsPC-1 [3] = test: as above; assay type: cell-based, human; conditions: AsPC-1, 20 μM, 72 h
Protocol: as §1

Water solubility = assay type: physicochemical
Protocol: The solubility was determined as previously described. The calculated LogP (cLogP) value was determined using ACD LogP software package, version 4.55 (Advanced Chemistry Development Inc., Toronto, ON, Canada).

Capan-2 [4] = test: MTT cell viability assay; assay type: cell-based, human
Protocol: (§2) The cell viability was assessed using MTT assay, as previously described. Briefly, the cells were seeded in 96-well plates (4 × 10^3 cells/well) and were treated for 72 h with different concentrations of RSV, DF5, and DF12. The IC50 values were extrapolated from dose–response curves and calculated using the CompuSyn software (https://www.combosyn.com/). The selectivity index (SI) values were calculated as ratios between the IC50 values of compounds in normal HFF-1 fibroblast cells and the IC50 values of the same compounds in the PC cell lines.

BxPC-3 [5] = test: MTT cell viability assay; assay type: cell-based, human
Protocol: as §2

AsPC-1 [6] = test: MTT cell viability assay; assay type: cell-based, human
Protocol: as §2

[7] = Enzymatic stability in simulated intestinal fluid (SIF) with pancreatin; assay type: in vitro ADME; conditions: SIF pH 6.8 with pancreatin, 37 °C
Protocol: The SGF and SIF, containing pepsin and pancreatin, respectively, were prepared following the USP specifications. The reactions were carried out in a shaking water bath at 37 °C. The drug stock solution (10 μL of a 10^−4 M) was added to the preheated gastrointestinal fluids and, at fixed time points (0, 15, 30, and 60 min for SGF and 0, 60, 120, and 180 min for SIF), 20 μL of the media were mixed with 200 μL of cold acetonitrile containing 0.5% v/v of formic acid. The samples were centrifuged for 10 min at 5000× g and the supernatants were analyzed using HPLC. The relative difference (RD%) was used to predict the amount of compound decomposed in the presence of gastrointestinal fluids.

[8] = system: AsPC-1, BxPC-3 and Capan-2 PC cell lines; test: Cell cycle analysis by flow cytometry; assay type: cell-based, human; conditions: 50 μM, 24 h
Protocol: To perform the cell cycle analysis, the PC cells (3 × 10^5) were collected, fixed in 70% cold ethanol, and kept at 4 °C overnight. The collected cells were incubated at 4 °C overnight in 5 μg/mL PI (final concentration) and 100 μg/mL RNAse (final concentration). The cell cycle profiles were analyzed as previously described.

Question: With `Cc1ccc(/C=C/c2ccc(O)cc2)cc1` [DF5] as the compound, how does the “effect on percentage of CD133+EpCAM+ cancer stem-like subpopulation” value (from here on “effect on percentage”) (Capan-2 [1]) read?
Answer: sharp and statistically significant reduction

Question: What about the “effect on percentage” value (BxPC-3 [2]) of the same compound?
Answer: statistically significant impact

Question: And the “effect on percentage” value (AsPC-1 [3])?
Answer: sharp and statistically significant reduction

Question: What about the solubility (Water solubility; read-out: Classification (water solubility)) of the same compound?
Answer: < 100 µg/mL

Question: What about the solubility (Water solubility; read-out: Water Solubility) of the same compound?
Answer: < 10 µg/mL

Question: And the “effect on cell viability at maximum tested concentration” value (Capan-2 [4]; Capan-2, MTT, 100 µM)?
Answer: almost complete loss of cell viability

Question: What about the IC50 (Capan-2 [4]; Homo sapiens, Capan-2, MTT, 72 h) of the same compound?
Answer: 27.8 µM

Question: What about the “Selectivity Index (SI) Capan-2” value (Capan-2 [4]; SI = IC50 on normal HFF-1 fibroblast cells/IC50 on Capan-2) of the same compound?
Answer: > 3.60

Question: What about the IC50 (BxPC-3 [5]; Homo sapiens, BxPC-3, MTT, 72 h) of the same compound?
Answer: 22.7 µM

Question: What about the “Selectivity Index (SI) BxPC-3” value (BxPC-3 [5]; SI = IC50 on normal HFF-1 fibroblast cells/IC50 on BxPC-3) of the same compound?
Answer: > 4.41

Question: And the IC50 (AsPC-1 [6]; Homo sapiens, ASPC1, AsPC-1, MTT, 72 h)?
Answer: 14.7 µM

Question: What about the “Selectivity Index (SI) AsPC-1” value (AsPC-1 [6]; SI = IC50 on normal HFF-1 fibroblast cells/IC50 on AsPC-1) of the same compound?
Answer: > 6.79

Question: And the “RD% (relative difference)” value ([7]; 60 min)?
Answer: 8.12%

Question: What about the “RD% (relative difference)” value ([7]; 120 min) of the same compound?
Answer: 9.20%

Question: And the “RD% (relative difference)” value ([7]; 180 min)?
Answer: 9.36%

Question: What about the “effect on cells in G0/G1 phase” value ([8]; across the three PC cell lines, vs untreated cells) of the same compound?
Answer: statistically significant accumulation of cells at the G0/G1 phase

Question: And the “effect on cells in G2/M phase” value ([8]; three PC cell lines, in Capan-2 it did not reach statistical significance)?
Answer: drastic depletion of cells in the G2/M phase
